From the NIST ThermoML archive (doi:10.1021/je060271a)
Several values for one entry are separate records, joined by “and”; a condition that tells them apart may be missing. Equal entries are not always repeated. Numbers after ± are expanded uncertainties.

Settings: 283.16 K, Liquid, Vibrating tube method

CCCCCC(=O)OCC(COC(=O)CCCCC)(COC(=O)CCCCC)COC(=O)CCCCC [pentaerythritol tetrahexanoate]
Settings | mass density
227.4 kPa | 1004.4 ± 1.2 kg/m3
235.2 kPa | 1004.3 ± 1.2 kg/m3
235.3 kPa | 1004.3 ± 1.2 kg/m3
237.1 kPa | 1004.4 ± 1.2 kg/m3
361.3 kPa | 1004.3 ± 1.2 kg/m3
363.1 kPa | 1004.3 ± 1.2 kg/m3
365.9 kPa | 1004.3 ± 1.2 kg/m3
403.2 kPa | 1004.4 ± 1.2 kg/m3
405.8 kPa | 1004.3 ± 1.2 kg/m3
408.6 kPa | 1004.4 ± 1.2 kg/m3
410.7 kPa | 1004.4 ± 1.2 kg/m3
439.2 kPa | 1004.4 ± 1.2 kg/m3
500.7 kPa | 1004.3 ± 1.2 kg/m3
504.2 kPa | 1004.4 ± 1.2 kg/m3
508.2 kPa | 1004.5 ± 1.2 kg/m3
663.2 kPa | 1004.4 ± 1.2 kg/m3
669.2 kPa | 1004.5 ± 1.2 kg/m3
813.4 kPa | 1004.5 ± 1.2 kg/m3
1597.6 kPa | 1005.1 ± 1.2 kg/m3
1612.4 kPa | 1005 ± 1.2 kg/m3
1627.1 kPa | 1005.2 ± 1.2 kg/m3
1642.8 kPa | 1005.2 ± 1.2 kg/m3
1657.5 kPa | 1005.1 ± 1.2 kg/m3
1675.4 kPa | 1005.1 ± 1.2 kg/m3
1690.5 kPa | 1005.2 ± 1.2 kg/m3
1705.1 kPa | 1005.2 ± 1.2 kg/m3
1720 kPa | 1005.1 ± 1.2 kg/m3
1767.2 kPa | 1005.1 ± 1.2 kg/m3
1782.2 kPa | 1005.2 ± 1.2 kg/m3
1800 kPa | 1005.2 ± 1.2 kg/m3
1833.4 kPa | 1005.3 ± 1.2 kg/m3
1844.8 kPa | 1005.2 ± 1.2 kg/m3
2221.4 kPa | 1005.5 ± 1.2 kg/m3
2237 kPa | 1005.5 ± 1.2 kg/m3
2251.7 kPa | 1005.5 ± 1.2 kg/m3
2267.5 kPa | 1005.4 ± 1.2 kg/m3
2279.3 kPa | 1005.5 ± 1.2 kg/m3
2540.2 kPa | 1005.7 ± 1.2 kg/m3
2564.1 kPa | 1005.7 ± 1.2 kg/m3
2812.8 kPa | 1005.7 ± 1.2 kg/m3
2855.3 kPa | 1005.8 ± 1.2 kg/m3
3252.2 kPa | 1006 ± 1.2 kg/m3
3270.9 kPa | 1006.1 ± 1.2 kg/m3
3286.9 kPa | 1006.1 ± 1.2 kg/m3
3302.6 kPa | 1006.1 ± 1.2 kg/m3
3318.6 kPa | 1006.2 ± 1.2 kg/m3
3372.5 kPa | 1006.1 ± 1.2 kg/m3
3388.4 kPa | 1006.1 ± 1.2 kg/m3
3420.8 kPa | 1006.1 ± 1.2 kg/m3
3440.8 kPa | 1006.1 ± 1.2 kg/m3
3456.7 kPa | 1006.1 ± 1.2 kg/m3
3473.5 kPa | 1006.1 ± 1.2 kg/m3
3493.4 kPa | 1006.3 ± 1.2 kg/m3
3510.2 kPa | 1006.3 ± 1.2 kg/m3
3530.5 kPa | 1006.2 ± 1.2 kg/m3
3547.3 kPa | 1006.3 ± 1.2 kg/m3
3564.3 kPa | 1006.2 ± 1.2 kg/m3
3581.1 kPa | 1006.3 ± 1.2 kg/m3
3601.7 kPa | 1006.3 ± 1.2 kg/m3
3619.1 kPa | 1006.3 ± 1.2 kg/m3
3636 kPa | 1006.1 ± 1.2 kg/m3
3657.3 kPa | 1006.3 ± 1.2 kg/m3
3674.7 kPa | 1006.2 ± 1.2 kg/m3
3692.2 kPa | 1006.3 ± 1.2 kg/m3
3709.8 kPa | 1006.3 ± 1.2 kg/m3
3730.8 kPa | 1006.4 ± 1.2 kg/m3
3748.8 kPa | 1006.3 ± 1.2 kg/m3
3766.1 kPa | 1006.4 ± 1.2 kg/m3
3784.2 kPa | 1006.4 ± 1.2 kg/m3
3805.3 kPa | 1006.3 ± 1.2 kg/m3
3823 kPa | 1006.3 ± 1.2 kg/m3
3841.3 kPa | 1006.5 ± 1.2 kg/m3
3863 kPa | 1006.3 ± 1.2 kg/m3
3877.2 kPa | 1006.4 ± 1.2 kg/m3
3895.2 kPa | 1006.5 ± 1.2 kg/m3
3920.3 kPa | 1006.4 ± 1.2 kg/m3
3938.5 kPa | 1006.5 ± 1.2 kg/m3
4764.4 kPa | 1006.8 ± 1.2 kg/m3
4769.6 kPa | 1006.9 ± 1.2 kg/m3
4781 kPa | 1006.9 ± 1.2 kg/m3
4797.5 kPa | 1007 ± 1.2 kg/m3
5309.2 kPa | 1007.3 ± 1.2 kg/m3
5315.8 kPa | 1007.3 ± 1.2 kg/m3
5321.5 kPa | 1007.3 ± 1.2 kg/m3
5327.9 kPa | 1007.2 ± 1.2 kg/m3
5334.1 kPa | 1007.3 ± 1.2 kg/m3
5341.5 kPa | 1007.2 ± 1.2 kg/m3
5347.3 kPa | 1007.4 ± 1.2 kg/m3
5354.7 kPa | 1007.4 ± 1.2 kg/m3
5361.1 kPa | 1007.3 ± 1.2 kg/m3
5367.3 kPa | 1007.2 ± 1.2 kg/m3
5373.4 kPa | 1007.3 ± 1.2 kg/m3
5380.6 kPa | 1007.3 ± 1.2 kg/m3
5386.9 kPa | 1007.3 ± 1.2 kg/m3
5392.9 kPa | 1007.3 ± 1.2 kg/m3
5400.4 kPa | 1007.2 ± 1.2 kg/m3
5406.9 kPa | 1007.2 ± 1.2 kg/m3
5413 kPa | 1007.3 ± 1.2 kg/m3
5419.4 kPa | 1007.3 ± 1.2 kg/m3
5426.8 kPa | 1007.3 ± 1.2 kg/m3
5432 kPa | 1007.3 ± 1.2 kg/m3
5438.4 kPa | 1007.3 ± 1.2 kg/m3
5446 kPa | 1007.4 ± 1.2 kg/m3
5521.9 kPa | 1007.3 ± 1.2 kg/m3
6618.4 kPa | 1007.9 ± 1.2 kg/m3
6623.1 kPa | 1008.1 ± 1.2 kg/m3
6626.7 kPa | 1008 ± 1.2 kg/m3
6630.5 kPa | 1008.2 ± 1.2 kg/m3
6653 kPa | 1008 ± 1.2 kg/m3
6657.1 kPa | 1008.1 ± 1.2 kg/m3
6661.4 kPa | 1008 ± 1.2 kg/m3
6666.3 kPa | 1008 ± 1.2 kg/m3
6670.4 kPa | 1008 ± 1.2 kg/m3
6722 kPa | 1008 ± 1.2 kg/m3
6726 kPa | 1008.1 ± 1.2 kg/m3
6730.2 kPa | 1008.1 ± 1.2 kg/m3
6734.1 kPa | 1008.1 ± 1.2 kg/m3
6738.3 kPa | 1008 ± 1.2 kg/m3
6743.3 kPa | 1008.1 ± 1.2 kg/m3
6747.1 kPa | 1007.9 ± 1.2 kg/m3
6750.9 kPa | 1008 ± 1.2 kg/m3
6755.6 kPa | 1008 ± 1.2 kg/m3
6763.5 kPa | 1008.2 ± 1.2 kg/m3
6768 kPa | 1008 ± 1.2 kg/m3
6772.6 kPa | 1008 ± 1.2 kg/m3
6775.9 kPa | 1008.2 ± 1.2 kg/m3 and 1008.1 ± 1.2 kg/m3
6776.4 kPa | 1008.1 ± 1.2 kg/m3 and 1008 ± 1.2 kg/m3
6783.8 kPa | 1008 ± 1.2 kg/m3
6784.2 kPa | 1008.2 ± 1.2 kg/m3
6784.5 kPa | 1008 ± 1.2 kg/m3
6785.8 kPa | 1008.2 ± 1.2 kg/m3
8353.5 kPa | 1009.1 ± 1.2 kg/m3
8367.6 kPa | 1008.9 ± 1.2 kg/m3
9689.3 kPa | 1009.7 ± 1.2 kg/m3 and 1009.8 ± 1.2 kg/m3
9689.5 kPa | 1009.7 ± 1.2 kg/m3
9689.6 kPa | 1009.7 ± 1.2 kg/m3
9689.8 kPa | 1009.7 ± 1.2 kg/m3
9690.2 kPa | 1009.8 ± 1.2 kg/m3
9691.7 kPa | 1009.7 ± 1.2 kg/m3
9694.6 kPa | 1009.8 ± 1.2 kg/m3
9697.7 kPa | 1009.8 ± 1.2 kg/m3
9697.9 kPa | 1009.8 ± 1.2 kg/m3 and 1009.9 ± 1.2 kg/m3
9702.1 kPa | 1009.8 ± 1.2 kg/m3
9711.5 kPa | 1009.8 ± 1.2 kg/m3
